Assay results as given in patent publication US8450354B2, “Substituted imidazo[1,2-b]pyridazine derivatives, pharmaceutical compositions, and methods of use as β-secretase inhibitors” (High Point Pharmaceuticals, LLC, priority 2010, dated 2013).

Assays:
BACE-1 enzyme = target: T1, BACE-1 enzyme (Homo sapiens, UniProt P56817); assay: BACE Fluorescence Resonance Energy Transfer (FRET) Assay; type: biochemical; conditions: pH 4-4.5, 30 min pre-incubation, about 1.5 hours reaction, asterisk = mean
T1 construct: purchased R & D Systems 931AS
T1 sequence (P56817 46-457 limits assumed): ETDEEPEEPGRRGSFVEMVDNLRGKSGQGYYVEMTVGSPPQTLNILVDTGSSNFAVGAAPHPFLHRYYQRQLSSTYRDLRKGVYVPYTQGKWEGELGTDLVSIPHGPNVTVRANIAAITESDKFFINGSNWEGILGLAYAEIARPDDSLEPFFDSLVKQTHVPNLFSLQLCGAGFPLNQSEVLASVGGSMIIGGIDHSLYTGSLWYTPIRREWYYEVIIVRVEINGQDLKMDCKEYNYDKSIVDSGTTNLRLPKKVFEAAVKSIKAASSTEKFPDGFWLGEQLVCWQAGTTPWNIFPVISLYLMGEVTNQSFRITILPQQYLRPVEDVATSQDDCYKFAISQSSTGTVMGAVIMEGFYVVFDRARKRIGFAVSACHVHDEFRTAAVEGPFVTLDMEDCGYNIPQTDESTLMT
In short: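 BACE-1 enzyme pre-incubated 30 minutes with compound (7.5% DMSO) in 50 mM sodium acetate pH 4-4.5 with CHAPS, TritonX-100, EDTA. Rhodamine-quenched peptide substrate cleavage ran about 1.5 hours at room temperature; fluorescence read at 540/585 nm, giving IC50 or percent inhibition at one concentration.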

[1] = system: Aβ1-40 secreted from HEK293 cells stably expressing wildtype human APP695 protein (HEK-APPwt cells); proteolytic activity of BACE; assay: Aβ Cell Based Assay (Aβ1-40 secretion, ELISA); conditions: 6 hours incubation, reduction of Aβ1-40 secretion, asterisk = mean
Description: (§1) Aβ Cell Based Assay Procedure
(§2) In the following assay, the proteolytic activity of BACE in cells exposed to varying concentrations of a compound of interest is measured by observing the amount of Aβ1-40 secreted from HEK293 cells (Human Embryonic Kidney epithelial cell line) stably expressing wildtype human APP695 protein (HEK-APPwt cells).
(§3) HEK-APPwt cells were grown in high glucose DMEM (Dulbecco's Modified Eagles Medium SIGMA Cat. #D5796) supplemented with 25 mM HEPES (4-(2-hydroxyethyl)-1-piperazineethanesulfonic acid) (pH 7.4) (Invitrogen Cat. #15630-114), 0.1 mM NEAA (Non-essential Amino Acids) (BioWhittaker Cat. #13-114E), 10% fetal bovine serum (SIGMA Cat. #F4135) and 250 μg/mL hygromycin (Invitrogen Cat. #10687-010) in T-225 flasks at 37° C. with 5% CO2 and humidity control.
(§4) Test compounds were initially prepared in DMSO and diluted with DMEM media containing 2% FBS (Fetal bovine serum). Ten standard compound solutions were prepared having a range of concentrations. The standard compound solutions were used to determine the EC50 of the test compound. The range of concentrations chosen may depend on the compound's predicted potency.
(§5) To prepare cells for the assay, a flask containing HEK-APPwt cells were trypsinized briefly (1 mL trypsin), and once the cells detached, 4 mL of 10% FBS-DMEM was added to the flask. The detached cells were centrifuged at 900 rpm for 5 min to form a pellet.
(§6) The HEK-APPwt cell pellet was re-suspended with 10 mL DMEM media containing 2% FBS. 80 μL of the cell suspension was added to each well of a 96-well cell culture plate to give 100×10^4 cells/ml. 10 μL of a standard compound solution was added to each well of the 96-well cell culture plate followed by 10 μL of Alamar blue solution. The cells were incubated at 37° C. in a 5% CO2 incubator for 6 hours.
(§7) At the end of the incubation, the plates were removed from incubator, and the supernatant was collected. Aβ1-40 concentration in the medium was measured by using a commercial Aβ1-X ELISA kit (IBL, Japan Cat. #27729). Briefly, the ELISA plates were coated with an anti-human Aβ (N)(82E1) mouse IgG monoclonal antibody. A horseradish peroxidase conjugated anti-human Aβ11-28 mouse IgG monoclonal antibody was used for detection. The cell culture supernatant was diluted with EIA buffer+protease inhibitors (kit buffer containing protease inhibitors (1 mL PI/30 mL buffer)). A 100 μL aliquot of the diluted supernatant was added to each well of the ELISA plate and incubated for 6 hrs at 4° C. The ELISA plate was washed 8 times with phosphate buffered saline (PBS) containing 0.05% TWEEN 20.
(§8) A 100 μL of detection antibody was then added and incubated for 1 hour at 4° C. The plate was washed 8 times with PBS buffer containing 0.05% Tween 20 followed by addition of 100 μL of the chromogen tetramethylbenzidine (TMB). The plate was incubated in the dark at room temperature for about 30 min and a stop solution (1N H2SO4) was added.
(§9) The intensity of the color developed was measured at 450 nm. The optical density at 450 nm (OD450) is proportional to the concentration of human Aβ1-40 secreted by the cell. As a reference, N—[N-(3,5-difluorophenacetyl-L-alanyl)]—S-phenylglycine t-butyl ester (DAPT, a γ-secretase inhibitor) was used to indicate 100% inhibition of […]. Thus, the assay measures the ability of a compound of interest to reduce Aβ1-40 secretion. Compound potency is reported in Table 3 as the EC50 by calculating the percent inhibition at all concentration levels and the data were fit with non-linear curve fitting algorithm using GraphPad Prism.

[2] = Aβ Cell Based Assay (Aβ1-40 secretion, ELISA); parameters: species or system human; conditions: Homo sapiens, HEK293; HEK-APPwt cells, 6 hours incubation, reduction of Aβ1-40 secretion; asterisk = mean
Description: as §1, §2, §3, §4, §5, §6, §7, §8, §9

`O=C(Nc1nc2cc(-c3cccc(OC(F)(F)F)c3)ccc2[nH]1)c1cn2nc(OCCO)ccc2n1` [Example 143, 6-(2-Hydroxy-ethoxy)-imidazol[1,2-b]pyridazine-2-carboxylic acid [5-(3-trifluoromethoxy-phenyl)-1H-benzoimidazol-2-yl]-amide] gave an IC50 (BACE-1 enzyme) of 0.172 µM and an EC50 [1] of 1.07 µM.

In the case of `C[C@H](C[C@@H](C)O)Oc1ccc2nc(C(=O)Nc3nc4cc(-c5cccc(C(F)(F)F)c5)ccc4[nH]3)cn2n1` [Example 120, 6-((1R,3R)-3-hydroxy-1-methyl-butoxy)-imidazo[1,2-b]pyridazine-2-carboxylic acid [5-(3-trifluoromethyl-phenyl)-1H-benzoimidazol-2-yl]-amide], the IC50 (BACE-1 enzyme) was 0.455 µM and the EC50 [2] was 0.07 µM.

Work on `O=C(Nc1nc2cc(-c3cccc(OC(F)(F)F)c3)ccc2[nH]1)c1cn2nc(OC[C@H]3CC[C@@H](CO)O3)ccc2n1` [Example 134] yielded an IC50 (BACE-1 enzyme) of 0.203 µM and an EC50 [2] of 0.75 µM.

`CCC[C@@H](O)COc1ccc2nc(C(=O)Nc3nc4cc(-c5cc(F)cc(Cl)c5)ccc4[nH]3)cn2n1` [Example 124] gave an IC50 (BACE-1 enzyme) of 0.419 µM and an EC50 [2] of 0.3 µM.

Molecule `O=C(Nc1nc2cc(-c3cccc(C(F)(F)F)c3)ccc2[nH]1)c1cn2nc(OCCN3CCCCCC3)ccc2n1` [Example 40] has an IC50 (BACE-1 enzyme) of 0.307 µM and an EC50 [2] of 2.68 µM.

In the case of `O=C(Nc1nc2cc(-c3cc(F)cc(Cl)c3)ccc2[nH]1)c1cn2nc(OCC3(CO)CC3)ccc2n1` [Example 104], the IC50 (BACE-1 enzyme) was 0.277 µM and the EC50 [2] was 0.33 µM.

`O=C(Nc1nc2cc(-c3cccc(OC(F)(F)F)c3)ccc2[nH]1)c1cn2nc(OCCN3CCOCC3)ccc2n1` [Example 32] gave an IC50 (BACE-1 enzyme) of 0.234 µM and an EC50 [2] of 0.59 µM.

`O=C(Nc1nc2cc(-c3cc(F)cc(Cl)c3)ccc2[nH]1)c1cn2nc(OCCCO)ccc2n1` [Example 113] gave an IC50 (BACE-1 enzyme) of 0.528 µM and an EC50 [2] of 1.71 µM.

`CC1(C)CCC(c2ccc3[nH]c(NC(=O)c4cn5nc(N6CCC(O)CC6)ccc5n4)nc3c2)CC1` [Example 83] showed an IC50 (BACE-1 enzyme) of 0.18 µM and an EC50 [2] of 1.47 µM.

With `CC1(C)CCC(c2ccc3[nH]c(NC(=O)c4cn5nc(N6CC[C@@H](O)C6)ccc5n4)nc3c2)CC1` [Example 85] the IC50 (BACE-1 enzyme) was 0.089 µM and the EC50 [2] was 2.27 µM.

`O=C(Nc1nc2cc(-c3cccc(C(F)(F)F)c3)ccc2[nH]1)c1cn2nc(OCCN3CCNC3=O)ccc2n1` [Example 26] showed an IC50 (BACE-1 enzyme) of 0.222 µM and an EC50 [2] of 1.41 µM.

Molecule `O=C(Nc1nc2cc(-c3cc(F)cc(Cl)c3)ccc2[nH]1)c1cn2nc(OCCN3CCCCCC3)ccc2n1` [Example 53] has an IC50 (BACE-1 enzyme) of 0.216 µM and an EC50 [2] of 2.62 µM.

`CC(C)(O)CCOc1ccc2nc(C(=O)Nc3nc4cc(-c5cc(F)cc(Cl)c5)ccc4[nH]3)cn2n1` [Example 114] gave an IC50 (BACE-1 enzyme) of 0.279 µM and an EC50 [2] of 0.33 µM.

For `O=C(Nc1nc2cc(-c3cccc(OC(F)(F)F)c3)ccc2[nH]1)c1cn2nc(OCCN3CCCC3=O)ccc2n1` [Example 31], the IC50 (BACE-1 enzyme) was 0.313 µM and the EC50 [2] was 2.5 µM.

In the case of `O=C(Nc1nc2cc(-c3cccc(C(F)(F)F)c3)ccc2[nH]1)c1cn2nc(OCCn3cncn3)ccc2n1` [Example 45], the IC50 (BACE-1 enzyme) was 0.198 µM and the EC50 [2] was 1.31 µM.

`O=C(Nc1nc2cc(-c3cccc(OC(F)(F)F)c3)ccc2[nH]1)c1cn2nc(OCCn3cncn3)ccc2n1` [Example 29] showed an IC50 (BACE-1 enzyme) of 0.314 µM and an EC50 [2] of 2.58 µM.

With `CN(C)CCN(C)CCOc1ccc2nc(C(=O)Nc3nc4cc(-c5cccc(C(F)(F)F)c5)ccc4[nH]3)cn2n1` [Example 43] the IC50 (BACE-1 enzyme) was 0.335 µM and the EC50 [2] was 2.88 µM.

Molecule `C[C@@H](O)[C@@H](C)Oc1ccc2nc(C(=O)Nc3nc4cc(-c5cc(F)cc(Cl)c5)ccc4[nH]3)cn2n1` [Example 146, 6-((1R,2R)-2-hydroxy-1-methyl-propoxy)-imidazo[1,2-b]pyridazine-2-carboxylic acid [5-(3-chloro-5-fluoro-phenyl)-1H-benzoimidazol-2-yl]-amide] has an IC50 (BACE-1 enzyme) of 0.376 µM and an EC50 [2] of 0.11 µM.

In the case of `O=C(Nc1nc2cc(-c3cc(F)cc(Cl)c3)ccc2[nH]1)c1cn2nc(N3CCC(O)CC3)ccc2n1` [Example 142, 6-(4-Hydroxy-piperidin-1-yl)-imidazo[1,2-b]pyridazine-2-carboxylic acid [5-(3-chloro-5-fluoro-phenyl)-1H-benzoimidazol-2-yl]-amide], the IC50 (BACE-1 enzyme) was 0.134 µM and the EC50 [2] was 0.63 µM.

Work on `CN1CC[C@H](Oc2ccc3nc(C(=O)Nc4nc5cc(-c6cc(F)cc(Cl)c6)ccc5[nH]4)cn3n2)C1` [Example 69] yielded an IC50 (BACE-1 enzyme) of 0.3 µM and an EC50 [2] of 2.93 µM.
